# Laboratory results taken from patent publication US11395847B2, “Acylated GLP-1/GLP-2 dual agonists” (Zealand Pharma A/S, priority 2016, dated 2022).
# Where two headings read alike, the source gives them in different places. Where a SMILES comes first, the peptide text is derived from it.
# How the values were obtained:
# [1] = Chemical stability (RP-HPLC normalized purity after incubation at 40° C.); type: physicochemical; details: pH 7, 40° C., 14-day incubation, 0.2 mg/ml, normalized purity (area-%)
# Procedure: Samples of each test peptide were dissolved in MILLIQ™ water, and the pH of the solution was adjusted to pH 6, 7, 7.5 or 9 using either HCl or NaOH. The final peptide concentration was 0.2 mg/ml. Samples were placed in glass vials and incubated at 40° C. The samples were analyzed by RP-HPLC on a C18 column with gradient elution using an acetonitrile/TFA/water eluent system. The area-percentage (area-%) of the main peak after incubation time T=t (relative to time T=0) was determined by UV spectroscopy at 220 nm.
# The purity was first determined as follows: Purity(area-%)=(area of main peak/total area of all peaks)×100.
# The purity was then normalized between time points by setting purity at time 0 (T=0) to 100 for each pH value for a given peptide, as follows: Normalized area-% at time t(T=t)=[area-%(T=t)/area-%(T=0)]×100.
# The chemical stability assessment results after 14-day incubation (in the form of normalized purity values) are summarized in Table 4.
# [2] = Solubility assessment (turbidity absorbance at 325 nm); type: physicochemical
# Procedure: A stock solution of the test peptide (2 mg/ml; determined from the weighed amount of peptide) in demineralized water adjusted to pH 2.5 with HCl was prepared, and aliquots were diluted 1:1 in 100 mM acetate buffer (pH 4.0 and pH 5.0), 100 mM histidine buffer (pH 6.0 and pH 7.0) and 100 mM phosphate buffer (pH 6.0, pH 7.0 and pH 7.5), respectively, and loaded in a standard flat-bottom, non-sterile 96-well UV Microplate. The absorbance of samples (single samples, n=1) at 280 and 325 nm was measured in an absorbance-based plate reader, which was preheated to ambient temperature (typically 25° C.).
# [3] = 100 mM acetate buffer pH 4.0, ambient temperature, read-out: Solubility Acetate buffer pH 4
# [4] = 100 mM acetate buffer pH 5.0, ambient temperature, read-out: Solubility Acetate buffer pH 5
# [5] = 100 mM histidine buffer pH 6.0, ambient temperature, read-out: Solubility Histidine buffer pH 6
# [6] = 100 mM histidine buffer pH 7.0, ambient temperature, read-out: Solubility Histidine buffer pH 7
# [7] = 100 mM phosphate buffer pH 6.0, ambient temperature, read-out: Solubility Phosphate buffer pH 6
# [8] = 100 mM phosphate buffer pH 7.0, ambient temperature, read-out: Solubility Phosphate buffer pH 7
# [9] = 100 mM phosphate buffer pH 7.5, ambient temperature, read-out: Solubility Phosphate buffer pH 7.5
pH 7 normalized stability [1],"solubility [2, 3] [µg/mL]","solubility [2, 4] [µg/mL]","solubility [2, 5] [µg/mL]","solubility [2, 6] [µg/mL]","solubility [2, 7] [µg/mL]","solubility [2, 8] [µg/mL]","solubility [2, 9] [µg/mL]",Compound
A (>90% normalised stability),,,,,,,,"CC[C@H](C)[C@H](NC(=O)[C@H](Cc1ccccc1)NC(=O)[C@H](CC(=O)O)NC(=O)[C@H](CCCCNC(=O)COCCOCCNC(=O)[C@H](CCCCN)NC(=O)[C@H](CCC(=O)O)NC(=O)[C@H](CCCCN)NC(=O)CC[C@H](NC(=O)CCCCCCCCCCCCCCCCCCC(=O)O)C(=O)O)NC(=O)[C@H](C)NC(=O)[C@H](C)NC(=O)[C@H](CCCCN)NC(=O)[C@H](C)NC(=O)[C@H](CC(=O)O)NC(=O)[C@H](CC(C)C)NC(=O)[C@@H](NC(=O)[C@@H](NC(=O)[C@H](C)NC(=O)[C@H](CC(C)C)NC(=O)[C@H](CCC(=O)O)NC(=O)[C@H](CO)NC(=O)[C@@H](NC(=O)[C@H](Cc1ccccc1)NC(=O)[C@H](CO)NC(=O)CNC(=O)[C@H](CCC(=O)O)NC(=O)C(C)(C)NC(=O)[C@@H](N)Cc1c[nH]cn1)[C@@H](C)O)[C@@H](C)O)[C@@H](C)CC)C(=O)N[C@@H](C)C(=O)N[C@@H](Cc1c[nH]c2ccccc12)C(=O)N[C@@H](CC(C)C)C(=O)N[C@H](C(=O)N[C@@H](CCC(=O)O)C(=O)N[C@@H](Cc1c[nH]cn1)C(=O)N[C@@H](CCCCN)C(=O)N[C@H](C(=O)N[C@H](C(=O)N[C@@H](CC(=O)O)C(=O)O)[C@@H](C)O)[C@@H](C)CC)[C@@H](C)CC [Compound 68] (HELM PEPTIDE1{H.[Aib].E.G.S.F.T.S.E.L.A.T.I.L.D.A.K.A.A.K.D.F.I.A.W.L.I.E.H.K.I.T.D}|PEPTIDE2{[O=C(O)CCCCCCCCCCCCCCCCCCC(=O)[*:2]].[gGlu].K.E.K.[O=C(COCCOCCN[*:1])[*:2]]}$PEPTIDE1,PEPTIDE2,20:R3-6:R2$$$V2.0)"
,< 1000,< 1000,≥ 1000,≥ 1000,≥ 1000,≥ 1000,≥ 1000,"CC[C@H](C)[C@H](NC(=O)[C@H](Cc1ccccc1)NC(=O)[C@H](CC(=O)O)NC(=O)[C@H](CCCNC(=N)N)NC(=O)[C@H](C)NC(=O)[C@H](C)NC(=O)[C@H](CCC(N)=O)NC(=O)[C@H](CCCCNC(=O)CC[C@H](NC(=O)CCCCCCCCCCCCCCCCC(=O)O)C(=O)O)NC(=O)[C@H](CC(=O)O)NC(=O)[C@H](CC(C)C)NC(=O)[C@@H](NC(=O)[C@@H](NC(=O)[C@H](C)NC(=O)[C@H](CC(C)C)NC(=O)[C@H](CCC(=O)O)NC(=O)[C@H](CO)NC(=O)[C@H](CO)NC(=O)[C@H](Cc1ccccc1)NC(=O)[C@@H](NC(=O)CNC(=O)[C@H](CCC(=O)O)NC(=O)C(C)(C)NC(=O)[C@@H](N)Cc1c[nH]cn1)[C@@H](C)O)[C@@H](C)O)[C@@H](C)CC)C(=O)N[C@@H](C)C(=O)N[C@@H](Cc1c[nH]c2ccccc12)C(=O)N[C@@H](CC(C)C)C(=O)N[C@H](C(=O)N[C@@H](CCC(=O)O)C(=O)N[C@@H](Cc1c[nH]cn1)C(=O)N[C@@H](CCCCN)C(=O)N[C@H](C(=O)N[C@H](C(=O)N[C@@H](CC(=O)O)C(=O)O)[C@@H](C)O)[C@@H](C)CC)[C@@H](C)CC [Compound 20] (HELM PEPTIDE1{H.[Aib].E.G.T.F.S.S.E.L.A.T.I.L.D.K.Q.A.A.R.D.F.I.A.W.L.I.E.H.K.I.T.D}|PEPTIDE2{[O=C(O)CCCCCCCCCCCCCCCCC(=O)[*:2]].[gGlu]}$PEPTIDE1,PEPTIDE2,16:R3-2:R2$$$V2.0)"
,< 1000,< 1000,≥ 1000,≥ 1000,≥ 1000,≥ 1000,≥ 1000,"CC[C@H](C)[C@H](NC(=O)[C@H](Cc1ccccc1)NC(=O)[C@H](CC(=O)O)NC(=O)[C@H](CCCNC(=N)N)NC(=O)[C@H](C)NC(=O)[C@H](C)NC(=O)[C@H](CCC(N)=O)NC(=O)[C@H](CCCCNC(=O)CC[C@H](NC(=O)CCCCCCCCCCCCCCCCC(=O)O)C(=O)O)NC(=O)[C@H](CC(=O)O)NC(=O)[C@H](CC(C)C)NC(=O)[C@@H](NC(=O)[C@@H](NC(=O)[C@H](C)NC(=O)[C@H](CC(C)C)NC(=O)[C@H](CCC(=O)O)NC(=O)[C@H](CO)NC(=O)[C@@H](NC(=O)[C@H](Cc1ccccc1)NC(=O)[C@H](CO)NC(=O)CNC(=O)[C@H](CCC(=O)O)NC(=O)C(C)(C)NC(=O)[C@@H](N)Cc1c[nH]cn1)[C@@H](C)O)[C@@H](C)O)[C@@H](C)CC)C(=O)N[C@@H](C)C(=O)N[C@@H](Cc1c[nH]c2ccccc12)C(=O)N[C@@H](CC(C)C)C(=O)N[C@H](C(=O)N[C@@H](Cc1ccc(O)cc1)C(=O)N[C@@H](Cc1c[nH]cn1)C(=O)N[C@@H](CCCCN)C(=O)N[C@H](C(=O)N[C@H](C(=O)N[C@@H](CC(=O)O)C(=O)O)[C@@H](C)O)[C@@H](C)CC)[C@@H](C)CC [Compound 27] (HELM PEPTIDE1{H.[Aib].E.G.S.F.T.S.E.L.A.T.I.L.D.K.Q.A.A.R.D.F.I.A.W.L.I.Y.H.K.I.T.D}|PEPTIDE2{[O=C(O)CCCCCCCCCCCCCCCCC(=O)[*:2]].[gGlu]}$PEPTIDE1,PEPTIDE2,16:R3-2:R2$$$V2.0)"
,< 1000,< 1000,< 1000,≥ 1000,< 1000,< 1000,≥ 1000,"CC[C@H](C)[C@H](NC(=O)[C@H](Cc1ccccc1)NC(=O)[C@H](CC(=O)O)NC(=O)[C@H](CCCNC(=N)N)NC(=O)[C@H](C)NC(=O)[C@H](C)NC(=O)[C@H](CC(C)C)NC(=O)[C@H](CC(N)=O)NC(=O)[C@H](CC(=O)O)NC(=O)[C@H](CC(C)C)NC(=O)[C@@H](NC(=O)[C@@H](NC(=O)[C@H](CC(N)=O)NC(=O)[C@H](CCSC)NC(=O)[C@H](CCC(=O)O)NC(=O)[C@H](CC(=O)O)NC(=O)[C@H](CO)NC(=O)[C@H](Cc1ccccc1)NC(=O)[C@H](CO)NC(=O)CNC(=O)[C@H](CC(=O)O)NC(=O)CNC(=O)[C@@H](N)Cc1c[nH]cn1)[C@@H](C)O)[C@@H](C)CC)C(=O)N[C@@H](CC(N)=O)C(=O)N[C@@H](Cc1c[nH]c2ccccc12)C(=O)N[C@@H](CC(C)C)C(=O)N[C@H](C(=O)N[C@@H](CCC(N)=O)C(=O)N[C@H](C(=O)N[C@@H](CCCCN)C(=O)N[C@H](C(=O)N[C@H](C(=O)N[C@@H](CC(=O)O)C(=O)O)[C@@H](C)O)[C@@H](C)CC)[C@@H](C)O)[C@@H](C)CC [Teduglutide, [Gly2]-hGLP-2 (1-33), reference compound]"
